Test results reported in PMC6278341 (Molecules, 2018).
Several values for one entry are separate records, joined by “and”; a condition that tells them apart may be missing. Identical values can stand only once.

Experiments:
D1 = D1 (Homo sapiens, UniProt P21728); experiment: Off target binding, D1 receptor
Excerpt: (§1) Off target screening data were obtained through the NIDA Addiction Treatment Discovery Program contract (ADA151001) with Oregon Health & Science University.

D4 = molecular target: T1, D4 (Homo sapiens, UniProt P21917); experiment: Off target binding, D4 receptor
T1 sequence (P21917 1-419): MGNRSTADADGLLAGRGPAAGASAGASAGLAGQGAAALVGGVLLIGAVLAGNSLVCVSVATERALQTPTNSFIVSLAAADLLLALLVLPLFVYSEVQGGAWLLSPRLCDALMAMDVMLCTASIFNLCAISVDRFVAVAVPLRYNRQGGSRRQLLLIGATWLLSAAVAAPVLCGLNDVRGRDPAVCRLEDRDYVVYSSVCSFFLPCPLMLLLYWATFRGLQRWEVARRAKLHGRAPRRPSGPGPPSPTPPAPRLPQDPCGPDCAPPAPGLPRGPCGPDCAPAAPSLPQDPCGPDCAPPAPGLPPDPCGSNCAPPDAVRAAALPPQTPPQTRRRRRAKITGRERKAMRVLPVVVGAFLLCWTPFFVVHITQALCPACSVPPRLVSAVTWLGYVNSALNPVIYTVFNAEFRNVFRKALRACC
Excerpt: as §1

5-HT1A = molecular target: T2, 5-HT1A (Homo sapiens, UniProt P08908); experiment: Off target binding, 5-HT1A receptor
T2 sequence (P08908 1-422): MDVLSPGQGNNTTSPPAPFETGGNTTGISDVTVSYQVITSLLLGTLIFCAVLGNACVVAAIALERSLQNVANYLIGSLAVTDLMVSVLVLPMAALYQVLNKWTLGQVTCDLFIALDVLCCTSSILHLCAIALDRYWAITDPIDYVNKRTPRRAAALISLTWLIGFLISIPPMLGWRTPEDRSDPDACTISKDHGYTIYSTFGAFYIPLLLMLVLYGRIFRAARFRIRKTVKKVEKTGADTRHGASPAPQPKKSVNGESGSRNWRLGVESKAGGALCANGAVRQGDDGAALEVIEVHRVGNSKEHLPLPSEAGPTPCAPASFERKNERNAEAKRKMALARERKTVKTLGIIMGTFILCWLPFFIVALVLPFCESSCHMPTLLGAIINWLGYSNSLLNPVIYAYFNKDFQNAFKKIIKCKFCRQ
Excerpt: as §1

5-HT2A = 5-HT2A (Homo sapiens, UniProt P28223); experiment: Off target binding, 5-HT2A receptor
Excerpt: as §1

[1] = set-up: method as in PMID 19573609; conditions: cited from earlier work
[2] = Stability of formulated radioligand in saline containing ethanol; type: physicochemical; conditions: saline containing ethanol (10% v/v), up to 2.5 h; initial 99%
[3] = Lipophilicity (logD7.4), 1-octanol/sodium phosphate buffer; type: physicochemical; conditions: room temperature, 1-octanol/sodium phosphate buffer pH 7.4, n = 6
Protocol: The radioligand in ethanol/saline was placed in sodium phosphate buffer (0.15 M, pH 7.4) for the duration of the experiment followed by the determination of its radiochemical purity to obtain information on its stability in buffer. […] Aliquots (1.0 mL) were distributed to eight borosilicate disposable culture tubes (13 × 100 mm). […] Radioactivities from six tubes were extracted with 1-octanol. Extraction was performed by vortexing the tubes with their content for 1 min. The tubes were centrifuged for 1 min. The organic and the aqueous phases were separated. Each phase was then sampled 50 μL and 200 μL respectively and counted separately in a well-type γ-counter (model 1480 Wizard; Perkin-Elmer) with an electronic window set between 360 and 1800 keV. The remaining two tubes, contained the radioactivity in buffer and served as stability measures for the radioligand. […] The radiochemical composition of the aqueous buffer after extraction with 1-octanol was determined with HPLC on an X-Terra C18 column (10 μm, 7.8 × 300 mm; Waters Corp., Milford, MA, USA) eluted with MeOH:H2O:Et3N (80:20:0.1 v/v/v) at 4.0 mL/min. […] The resulting radiochromatograms provided correction factors for the γ-counter counts to determine parent radioactivity only (corrected radioactivity). […] LogD7.4 was calculated according to the following formula:(1) logD7.4=log(cpm organic phase/corrected cpm aqueous phase)

[4] = Plasma free fraction by ultrafiltration; type: in vitro ADME; conditions: human plasma, n = 3; read-out: Human plasma free fraction (fp)
Protocol: The mixture was incubated at room temperature for 10 min and then processed as described previously. The ultrafiltration components that contained high radioactivity were allowed to decay to within the optimal range of the γ-counter before they were counted. Quantification of the ultrafiltrates was performed gravimetrically.

[5] = Tissue stability, rat whole blood, plasma and brain homogenate; type: in vitro ADME; conditions: at least 30 min at 37 °C
Protocol: (§2) These tissues were stored frozen at −70 °C but thawed on the day of analysis. […] Plasma analysis was performed as reported previously.

[6] = Tissue stability, human plasma and brain homogenate; type: in vitro ADME; conditions: at least 30 min at 37 °C
Protocol: as §2

[7] = Tissue stability, monkey brain homogenate; type: in vitro ADME; conditions: at least 30 min at 37 °C
Protocol: as §2

[8] = Cell uptake percentage in rat whole blood in vitro; type: in vitro ADME; conditions: in vitro at 37 °C, n = 3
Protocol: The capillary tubes were then centrifuged, and Hct determined using a StatSpin® CritSpin™ Microhematocrit system (Los Angeles, CA, USA). Aliquots of anticoagulated rat blood (250 µL) were placed in three Eppendorf tubes (1.5 mL). […] Then whole blood (50 µL) was removed from each tube and counted in the γ-counter. The tubes were then centrifuged before removing plasma (50 µL) for γ-counting.

[9] = Rat ex vivo measurements (radiometabolites and tissue concentrations); type: in vivo; conditions: for Unmetabolized [^11C]1: 30 min after i.v. injection
Protocol: The rats were then immediately sacrificed by decapitation, and their cortices, cerebella, and striata were excised. Each of the brain tissues was placed in MeCN (1 mL) and counted in a γ-counter. […] Water (500 μL) was then added and the tissues were further homogenized and counted in the γ-counter for calculating recoveries into MeCN. The homogenates were centrifuged at 10,000× g for 1 min. […] After separating plasma from blood cells, plasma samples (200 μL) were counted in γ-counter and plasma aliquots (450 μL) were each placed in MeCN (720 μL) along with of carrier 1 (5 μg) for deproteinization. After mixing the samples well, H2O (100 μL) was added. The samples were further mixed well, counted in a γ-counter, and centrifuged at 10,000× g for 1 min. Supernatants were injected onto the radio-HPLC and analyzed under the above conditions. All precipitates were counted in the γ-counter for calculating recoveries in the supernatants that were injected onto the HPLC.

D3R [10] = molecular target: T3, D3R (Rattus norvegicus, UniProt P19020); experiment: PET imaging in rats; type: in vivo; conditions: for Peak brain radioactivity concentration: rat PET
T3 construct: from tissue; host or cells: brain of living Sprague-Dawley rats
Protocol: (§3) In some rats, tariquidar (16 mg/kg, i.v.) was administered at 15 min before radioligand injection. […] For experiments in mice (wild type and P-gp/BCRP knock-out; male; Taconic FVB.129P2-Abcb1a^tm1BorAbcb1b^tm1BorAbcg2^tm1AhsN7; 27 ± 1.1 g), scans were acquired with a microPET Focus 120 camera for a duration of 90 min. […] Monkey (male rhesus macaque, 9.9 kg) experiments were acquired using microPET Focus 220 (Siemens Medical Solutions, Knoxville TN) for a duration of 90 min.
(§4) Images were reconstructed using Fourier rebinning followed by 2D OSEM with attenuation correction for rats and monkey and without attenuation correction for mice. Scatter correction was applied only for monkey. Volume of interests were delineated manually for rats and mice, and with a co-registered MRI template for monkey. All radioactivity was decay-corrected and expressed as standardized uptake value (SUV) which is radioactivity concentration corrected for subject weight and administered dose. Time activity curves in SUV were obtained and compared between conditions. The PET data analysis was performed using PMOD.

P-gp/BCRP = experiment: PET imaging in wild type and P-gp/BCRP knock-out mice; type: in vivo, mouse
Protocol: as §3, §4

D3R [11] = experiment: PET imaging in monkey; type: in vivo, rhesus macaque; conditions: for AUC 0-90 min higher than at baseline: tariquidar
Protocol: as §3, §4

T3 sequence (P19020 whole entry): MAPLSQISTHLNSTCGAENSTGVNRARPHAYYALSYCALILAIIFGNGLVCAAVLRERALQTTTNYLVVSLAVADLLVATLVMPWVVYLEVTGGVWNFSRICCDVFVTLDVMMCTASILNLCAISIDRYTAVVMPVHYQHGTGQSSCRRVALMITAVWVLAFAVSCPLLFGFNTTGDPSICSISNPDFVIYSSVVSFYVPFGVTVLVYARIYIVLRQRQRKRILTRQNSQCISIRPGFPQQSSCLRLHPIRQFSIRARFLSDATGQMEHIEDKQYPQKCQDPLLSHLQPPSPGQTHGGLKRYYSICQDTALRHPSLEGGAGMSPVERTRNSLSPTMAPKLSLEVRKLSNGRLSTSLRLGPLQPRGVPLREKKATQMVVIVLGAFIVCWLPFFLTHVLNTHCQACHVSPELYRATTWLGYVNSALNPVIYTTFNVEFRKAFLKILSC
D1, sequence (P21728 whole entry): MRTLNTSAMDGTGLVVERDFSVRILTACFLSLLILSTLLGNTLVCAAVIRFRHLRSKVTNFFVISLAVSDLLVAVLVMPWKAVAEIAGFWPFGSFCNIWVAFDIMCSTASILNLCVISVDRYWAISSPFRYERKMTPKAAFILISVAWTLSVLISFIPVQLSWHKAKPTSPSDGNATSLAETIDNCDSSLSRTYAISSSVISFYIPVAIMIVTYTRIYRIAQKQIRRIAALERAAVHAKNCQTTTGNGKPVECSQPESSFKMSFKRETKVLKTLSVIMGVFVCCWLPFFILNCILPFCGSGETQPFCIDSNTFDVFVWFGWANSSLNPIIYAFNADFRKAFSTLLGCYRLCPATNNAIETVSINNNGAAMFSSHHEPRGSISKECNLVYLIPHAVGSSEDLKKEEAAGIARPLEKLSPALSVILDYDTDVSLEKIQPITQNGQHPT
5-HT2A, sequence (P28223 whole entry, species assumed): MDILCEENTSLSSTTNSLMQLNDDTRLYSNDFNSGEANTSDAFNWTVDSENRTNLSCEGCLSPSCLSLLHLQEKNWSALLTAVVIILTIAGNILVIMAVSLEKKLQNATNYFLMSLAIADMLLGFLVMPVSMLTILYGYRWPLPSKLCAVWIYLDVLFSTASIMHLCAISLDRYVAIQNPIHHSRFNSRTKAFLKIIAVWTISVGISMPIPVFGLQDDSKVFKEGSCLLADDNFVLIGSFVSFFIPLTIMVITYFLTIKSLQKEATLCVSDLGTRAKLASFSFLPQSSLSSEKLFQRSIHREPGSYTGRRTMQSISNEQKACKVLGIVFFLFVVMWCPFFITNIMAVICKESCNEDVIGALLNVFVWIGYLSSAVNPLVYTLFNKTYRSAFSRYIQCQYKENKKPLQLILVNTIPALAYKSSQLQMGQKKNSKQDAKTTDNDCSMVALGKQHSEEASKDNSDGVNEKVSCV

## O=C(NCCCCN1CCN(c2cccc(Cl)c2O)CC1)c1cc2ccccc2[nH]1 [Compound 2, N-(4-(4-(3-Chloro-2-hydroxyphenyl)piperazin-1-yl)butyl)-1H-indole-2-carboxamide]
other
  melting point: 148 to 149 °C

## COc1c(Cl)cccc1N1CCN(CCCCNC(=O)c2cc3ccccc3[nH]2)CC1 [Compound 1, N-(4-(4-(3-chloro-2-methoxyphenyl)piperazin-1-yl)butyl)-1H-indole-2-carboxamide]
D1
  Ki: 2290 ± 340 nM
D4
  Ki: 300 ± 100 nM
5-HT1A
  Ki: 92.3 ± 8 nM
5-HT2A
  Ki: 19.7 ± 1.4 nM

## C[C@@H](N[C@@H]1C[C@H](c2cccc(O[11CH3])c2)N(c2ccc(C(F)(F)F)cc2)C1=O)c1ccccc1 [[^11C]MePPEP]
[1]
  plasma free fraction (fp): 0.05 ± 0.01%

## [11CH3]Oc1c(Cl)cccc1N1CCN(CCCCNC(=O)c2cc3ccccc3[nH]2)CC1 [[^11C]1, [O-methyl-^11C]N-(4-(4-(3-Chloro-2-methoxyphenyl)-piperazin-1-yl)butyl)-1H-indole-2-carboxamide]
[2]
  radiochemical purity after storage (stability): 96%
[3]
  logD: 3.33 ± 0.13
[4]
  fraction unbound at 10 min: 0.0015 ± 0.0001
[5]; rat brain homogenate
  stability: 99.4%
[5]; rat plasma
  stability: 98.8%
[5]; rat whole blood
  stability: 100%
[6]; human brain homogenate
  stability: 99.8%
[6]; human plasma
  stability: 99.3%
[7]
  stability: 100%
[8]
  cellular uptake in rat whole blood: 55.2 ± 1.1%
[9]; ex vivo, 30 min, tariquidar 16 mg/kg i.v.
  increase of rat brain tissue concentration, tariquidar-treated vs untreated: 2.4–2.6 fold
[9]; rat cerebellum, baseline
  Unmetabolized [^11C]1: 98.8%
[9]; rat cerebellum, baseline, ex vivo 30 min
  [^11C]1 Concentration: 1.20 SUV
[9]; rat cerebellum, tariquidar-treated
  Unmetabolized [^11C]1: 98.8%
[9]; rat cerebellum, tariquidar-treated, ex vivo 30 min
  [^11C]1 Concentration: 2.84 SUV
[9]; rat cortex, baseline
  Unmetabolized [^11C]1: 99.0%
[9]; rat cortex, baseline, ex vivo 30 min
  [^11C]1 Concentration: 1.33 SUV
[9]; rat cortex, tariquidar-treated
  Unmetabolized [^11C]1: 98.7%
[9]; rat cortex, tariquidar-treated, ex vivo 30 min
  [^11C]1 Concentration: 3.49 SUV
[9]; rat plasma, baseline
  Unmetabolized [^11C]1: 76% and 76.1%
[9]; rat plasma, baseline, ex vivo 30 min after i.v. injection
  [^11C]1 Concentration: 0.06 SUV
[9]; rat plasma, tariquidar-treated (16 mg/kg, i.v.), ex vivo 30 min
  [^11C]1 Concentration: 0.04 SUV
[9]; rat plasma, tariquidar-treated
  Unmetabolized [^11C]1: 69% and 68.9%
[9]; rat striatum, baseline
  Unmetabolized [^11C]1: 99.3%
[9]; rat striatum, baseline, ex vivo 30 min
  [^11C]1 Concentration: 1.36 SUV
[9]; rat striatum, tariquidar-treated
  Unmetabolized [^11C]1: 98.8%
[9]; rat striatum, tariquidar-treated, ex vivo 30 min
  [^11C]1 Concentration: 3.53 SUV
[9]; rat whole blood, baseline, ex vivo 30 min
  [^11C]1 Concentration: 0.09 SUV
[9]; rat whole blood, tariquidar-treated, ex vivo 30 min
  [^11C]1 Concentration: 0.07 SUV
D3R [10]; after tariquidar (16 mg/kg, i.v.)
  Peak brain radioactivity concentration: 3.4 SUV
D3R [10]; baseline
  Peak brain radioactivity concentration: 1.1 SUV
D3R [10]; rats, tariquidar 16 mg/kg i.v., BP897 0.5 mg/kg i.v. 10 min before or 15 min after radioligand
  change in brain TACs on BP897 challenge: No major changes
D3R [10]; rats, tariquidar 16 mg/kg i.v., spiperone 1.0 mg/kg i.v. 10 min before or 15 min after radioligand
  change in brain TACs on spiperone challenge: No obvious changes
P-gp/BCRP; P-gp/BCRP KO mice
  peak brain uptake: 1.6 SUV
P-gp/BCRP; rodents
  efflux transporter substrate behaviour: avid brain efflux transporter substrate
P-gp/BCRP; wild type mice
  peak brain uptake: 0.7 SUV
D3R [11]; baseline
  peak whole brain radioactivity uptake: 2−3 SUV
D3R [11]; occipital cortex
  AUC 0-90 min higher than at baseline: ~ 20%
D3R [11]; putamen
  AUC 0-90 min higher than at baseline: 70%
